In data set [1] the test system is Rattus norvegicus. Nature of the data set: Antiinflammatory against carrageenan-induced paw edema in Sprague-Dawley rat assessed as remaining paw edema at 25 mg/kg, sc administered 30 mins before carrageenan challenge measured after 1 hr by plethysmometer relative to control. Particulars: route subcutaneous. The class given is functional. (In general: In the carrageenan paw model, swelling and tenderness develop within hours.)

The subject of data set [2] is Rattus norvegicus. Nature of the data set: Antiinflammatory against carrageenan-induced paw edema in Sprague-Dawley rat assessed as remaining paw edema at 25 mg/kg, sc administered 30 mins before carrageenan challenge measured after 2 hrs by plethysmometer relative to control. The class given is functional. The settings on record: route subcutaneous.
The test system of data set [3] is Rattus norvegicus. Nature of the data set: Antiinflammatory against carrageenan-induced paw edema in Sprague-Dawley rat assessed as remaining paw edema at 25 mg/kg, sc administered 30 mins before carrageenan challenge measured after 3 hrs by plethysmometer relative to control. The class given is functional. The settings on record: route subcutaneous.
Data set [4] deals with Rattus norvegicus. Nature of the data set: Antiinflammatory against carrageenan-induced paw edema in Sprague-Dawley rat assessed as remaining paw edema at 25 mg/kg, sc administered 30 mins before carrageenan challenge measured after 4 hrs by plethysmometer relative to control. The class given is functional. Particulars: route subcutaneous.
Data set [5] deals with Rattus norvegicus. Nature of the data set: Antiinflammatory against carrageenan-induced paw edema in Sprague-Dawley rat assessed as remaining paw edema at 50 mg/kg, sc administered 30 mins before carrageenan challenge measured after 1 hr by plethysmometer relative to control. The class given is functional. Particulars: route subcutaneous.
The subject of data set [6] is Rattus norvegicus. The data set is described as follows: Antiinflammatory against carrageenan-induced paw edema in Sprague-Dawley rat assessed as remaining paw edema at 50 mg/kg, sc administered 30 mins before carrageenan challenge measured after 2 hrs by plethysmometer relative to control. The class given is functional. The settings on record: route subcutaneous.
For data set [7], the system named is Rattus norvegicus. The data set is described as follows: Antiinflammatory against carrageenan-induced paw edema in Sprague-Dawley rat assessed as remaining paw edema at 50 mg/kg, sc administered 30 mins before carrageenan challenge measured after 3 hrs by plethysmometer relative to control. The class given is functional. The settings on record: route subcutaneous.

Data set [8] has as its system Rattus norvegicus. Nature of the data set: Antiinflammatory against carrageenan-induced paw edema in Sprague-Dawley rat assessed as remaining paw edema at 50 mg/kg, sc administered 30 mins before carrageenan challenge measured after 4 hrs by plethysmometer relative to control. The class given is functional. Particulars: route subcutaneous.
Data set [9] has as its system Rattus norvegicus. Nature of the data set: Analgesic activity in Sprague-Dawley rat assessed as change in latency time required to elicit jumping or hind paw licking at 25 mg/kg, sc administered 1 hr prior testing measured after 1 hr of post dose by hot plate method relative to basal level. The class given is functional. Particulars: route subcutaneous. On the technique in general: In hot-plate and tail-flick tests a longer latency is read as antinociception.

Data set [10] concerns Rattus norvegicus. The data set is described as follows: Analgesic activity in Sprague-Dawley rat assessed as latency time required to elicit jumping or hind paw licking at 25 mg/kg, sc administered 1 hr prior testing measured after 2 hrs of post dose by hot plate method. The class given is functional. Particulars: route subcutaneous.
The test system of data set [11] is Mus musculus. The data set is described as follows: Analgesic activity in Swiss albino mouse assessed as inhibition of acetic acid-induced abdominal constriction at 25 mg/kg, sc administered 30 mins prior to acetic acid challenge measured for 30 mins relative to control. Particulars: Abdomen, route subcutaneous. The class given is functional.
Data set [12] relates to Rattus norvegicus. The data set is described as follows: Gastrointestinal toxicity in Sprague-Dawley rat assessed as gastric mucosal lesion at 50 mg/kg, po daily for 1 week. The class given is organism-based, Gastric mucosa. More on the design: dose 50 mg/kg, route oral. Particulars: in vivo, 168 h.
For data set [13], the system named is Rattus norvegicus. The data set is described as follows: Hepatotoxicity in Sprague-Dawley rat assessed as serum alanine aminotransferase level at 50 mg/kg, po daily for 1 week by Reitman-Frankel colorimetric procedure. The class given is toxicity, organism-based. More on the design: dose 50 mg/kg, route oral. The settings on record: in vivo, 168 h.
The test system of data set [14] is Rattus norvegicus. The data set is described as follows: Hepatotoxicity in Sprague-Dawley rat assessed as serum aspartate aminotransferase level at 50 mg/kg, po daily for 1 week by Reitman-Frankel colorimetric procedure. The class given is toxicity, organism-based. More on the design: dose 50 mg/kg, route oral. Particulars: in vivo, 168 h.
Data set [15] concerns Rattus norvegicus. The data set is described as follows: Analgesic activity in Sprague-Dawley rat assessed as change in latency time required to elicit jumping or hind paw licking at 25 mg/kg, sc administered 1 hr prior testing measured after 2 hrs of post dose by hot plate method relative to basal level. Particulars: route subcutaneous. The class given is functional.
Data set [16] deals with Rattus norvegicus. The data set is described as follows: Antiinflammatory against carrageenan-induced paw edema in Sprague-Dawley rat assessed as remaining paw edema at 10 mg/kg, sc administered 30 mins before carrageenan challenge measured after 2 hrs by plethysmometer relative to control. The class given is functional. The settings on record: route subcutaneous.
The subject of data set [17] is Rattus norvegicus. Nature of the data set: Antiinflammatory against carrageenan-induced paw edema in Sprague-Dawley rat assessed as remaining paw edema at 10 mg/kg, sc administered 30 mins before carrageenan challenge measured after 3 hrs by plethysmometer relative to control. The class given is functional. Particulars: route subcutaneous.
The subject of data set [18] is Rattus norvegicus. Nature of the data set: Antiinflammatory against carrageenan-induced paw edema in Sprague-Dawley rat assessed as remaining paw edema at 10 mg/kg, sc administered 30 mins before carrageenan challenge measured after 1 hr by plethysmometer relative to control. The class given is functional. Particulars: route subcutaneous.
Data set [19] relates to Rattus norvegicus. Nature of the data set: Antiinflammatory against carrageenan-induced paw edema in Sprague-Dawley rat assessed as remaining paw edema at 10 mg/kg, sc administered 30 mins before carrageenan challenge measured after 4 hrs by plethysmometer relative to control. The class given is functional. Particulars: route subcutaneous.
Data set [20] deals with Rattus norvegicus. The data set is described as follows: Analgesic activity in Sprague-Dawley rat assessed as change in latency time required to elicit jumping or hind paw licking at 10 mg/kg, sc administered 1 hr prior testing measured after 1 hr of post dose by hot plate method relative to basal level. The class given is functional. Particulars: route subcutaneous.
For data set [21], the system named is Rattus norvegicus. Nature of the data set: Analgesic activity in Sprague-Dawley rat assessed as change in latency time required to elicit jumping or hind paw licking at 10 mg/kg, sc administered 1 hr prior testing measured after 2 hrs of post dose by hot plate method relative to basal level. The class given is functional. The settings on record: route subcutaneous.

In data set [22] the test system is Mus musculus. Nature of the data set: Analgesic activity in Swiss albino mouse assessed as inhibition of acetic acid-induced abdominal constriction at 10 mg/kg, sc administered 30 mins prior to acetic acid challenge measured for 30 mins relative to control. The class given is functional. The settings on record: Abdomen, route subcutaneous.

In ChEMBL document CHEMBL1137672, “Synthesis and pharmacological evaluation of 2-substituted benzo[b]thiophenes as anti-inflammatory and analgesic agents” (Eur J Med Chem, 2009) one finds Activity and inhibition in vivo data, which are given here for six compounds.

One may read the inhibition in vivo as the drop in the measured response relative to a control, in per cent. Consider `O=C(NNC(=S)Nc1ccccc1)c1cc2cc([N+](=O)[O-])ccc2s1`, for which the Activity with Rattus norvegicus [1] is given as 40%; with Rattus norvegicus [2], 48.1%; with Rattus norvegicus [3] it was 54.6%; in the data set on Rattus norvegicus [4] it was 58.7%; with Rattus norvegicus [5] it was 35.7%; in the data set with Rattus norvegicus [6], 42.7%. The Activity in the data set with Rattus norvegicus [7] is recorded as 45.3%; in the data set on Rattus norvegicus [8], 46.2%; in the data set with Rattus norvegicus [9], 36.5%; in the data set with Rattus norvegicus [10], 16.66 s; in the data set on Rattus norvegicus [12], “Non-toxic”; in the data set with Rattus norvegicus [13], “Non-toxic”. Moreover, the Activity entry in the data set on Rattus norvegicus [14] is “Non-toxic”. The inhibition in vivo at 25 mg/kg in the data set on Mus musculus [11] is -63.4%.
On to `O=C(N/N=C/c1c[nH]c2ccccc12)c1cc2cc([N+](=O)[O-])ccc2s1`, for which the Activity with Rattus norvegicus [1] came out at 63.2%; in the data set on Rattus norvegicus [2], 89.1%; with Rattus norvegicus [3], 90.1%; in the data set on Rattus norvegicus [4], 90%; in the data set with Rattus norvegicus [5], 36.9%; with Rattus norvegicus [6], 46.5%. Moreover, the Activity in the data set with Rattus norvegicus [7] is 46.6%; with Rattus norvegicus [8] it was 49.6%; in the data set on Rattus norvegicus [9], 16.6%; in the data set with Rattus norvegicus [10], 14.72 s; with Rattus norvegicus [12] it was “Non-toxic”; with Rattus norvegicus [13] it was “Non-toxic”. Moreover, the Activity entry in the data set with Rattus norvegicus [14] is on record as “Non-toxic”. In addition, the inhibition in vivo at 25 mg/kg in the data set on Mus musculus [11] worked out at 16.9%.
For `NNC(=O)c1cc2cc([N+](=O)[O-])ccc2s1`, the Activity in the data set on Rattus norvegicus [1] is reported as 49.4%; in the data set with Rattus norvegicus [2], 51.9%; in the data set with Rattus norvegicus [3] it was 55.9%; with Rattus norvegicus [4] it was 55.9%; with Rattus norvegicus [5], 38.2%; with Rattus norvegicus [6], 42.2%. Further, the Activity with Rattus norvegicus [7] was 46.3%; in the data set with Rattus norvegicus [8], 51.3%; in the data set with Rattus norvegicus [9] it was 24.7%; with Rattus norvegicus [15], 31.6%; with Rattus norvegicus [12] it was “Non-toxic”; in the data set with Rattus norvegicus [13], “Non-toxic”. Moreover, the Activity entry in the data set with Rattus norvegicus [14] is on record as “Non-toxic”. In the data set with Mus musculus [11], the inhibition in vivo at 25 mg/kg was -88.2%.
Turning to `CN1C(C(=O)Nc2ccccn2)=C(O)c2ccccc2S1(=O)=O` [PIROXICAM], the Activity in the data set with Rattus norvegicus [16] was determined as 42.9%; in the data set with Rattus norvegicus [17], 51.4%; in the data set on Rattus norvegicus [18] it was 35.9%; in the data set with Rattus norvegicus [19] it was 51.4%; in the data set with Rattus norvegicus [20], 21.4%; with Rattus norvegicus [21], 8.3%. The inhibition in vivo at 10 mg/kg with Mus musculus [22] was -56.9%.
Turning to `Cc1ccc(/C=N/NC(=O)c2cc3cc([N+](=O)[O-])ccc3s2)o1`, the Activity in the data set on Rattus norvegicus [1] came to 55.9%; with Rattus norvegicus [2], 77.2%; with Rattus norvegicus [3], 92.2%; in the data set on Rattus norvegicus [4], 92%; in the data set with Rattus norvegicus [5], 37.5%; with Rattus norvegicus [6], 41.6%. Moreover, the Activity is recorded as 41.3% in the data set on Rattus norvegicus [7]; 40.7% in the data set with Rattus norvegicus [8]; 19.8% in the data set with Rattus norvegicus [9]; 22.39% with Rattus norvegicus [15]; “Non-toxic” with Rattus norvegicus [12]; “Non-toxic” in the data set on Rattus norvegicus [13]. For the same compound, the Activity result in the data set on Rattus norvegicus [14] is “Non-toxic”. For the same compound, the inhibition in vivo at 25 mg/kg with Mus musculus [11] is -43.1%.
In the case of `NNC(=O)Nc1cc2cc([N+](=O)[O-])ccc2s1`, the Activity in the data set on Rattus norvegicus [1] came out at 59.7%; in the data set with Rattus norvegicus [2] it was 71.2%; in the data set on Rattus norvegicus [3], 79%; in the data set with Rattus norvegicus [4] it was 80%; in the data set with Rattus norvegicus [5], 45.9%; in the data set on Rattus norvegicus [6], 45.9%. Further, the Activity was 54.3% with Rattus norvegicus [7]; 56.4% in the data set on Rattus norvegicus [8]; 19.4% in the data set on Rattus norvegicus [9]; 7.5% with Rattus norvegicus [15]; “Non-toxic” with Rattus norvegicus [12]; “Non-toxic” in the data set with Rattus norvegicus [13]. Moreover, the Activity entry in the data set on Rattus norvegicus [14] is recorded as “Non-toxic”. For the same compound, in the data set with Mus musculus [11], the inhibition in vivo at 25 mg/kg was -43.4%.
